Values joined by “and” are separate entries in the source; they are usually repeats but may differ in a detail not shown here. Identical values can stand only once.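 Method: 48-hour compound exposure of cells in 96-well plates, five concentrations, linear interpolation of endpoints. GI50 marks 50% less growth. TGI: concentration producing complete growth inhibition.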
Tests used:
Assay in all cases: NCI-60 cell line screen, 48 h
[1] = tested on: NCI/ADR-RES ovarian
[2] = tested on: HL-60(TB) leukemia
[3] = tested on: RXF 393 renal
[4] = tested on: DU-145 prostate
[5] = tested on: OVCAR-5 ovarian
[6] = tested on: IGROV1 ovarian
[7] = tested on: TK-10 renal
[8] = tested on: SF-295 CNS
[9] = tested on: SW-620 colon
[10] = tested on: NCI-H522 lung

| Compound | TGI [1] | TGI [2] | TGI [3] | TGI [4] | TGI [5] | TGI [6] | TGI [7] | TGI [8] | TGI [9] | TGI [10] | GI50 [2] | GI50 [4] | GI50 [9] | GI50 [5] | GI50 [6] | GI50 [10] | GI50 [7] | GI50 [8] |
| --- | --- | --- | --- | --- | --- | --- | --- | --- | --- | --- | --- | --- | --- | --- | --- | --- | --- | --- |
| CCC(=O)/C(=C\I)c1ccccc1 | 32.2 µM | 6.35 µM | 3.01 µM | 18.4 µM | 3.48 µM | 4.28 µM | 28.3 µM | 33.4 µM | – | – | – | – | – | – | – | – | – | – |
| COCC12CCC(OC)C34C5CC6(O)C(OC)CC(OC(C)=O)(C5C6OC(=O)c5ccccc5)C(C(OC)C13)C4N(C)C2 (configuration not stated) | > 100 µM | > 100 µM | > 100 µM | > 100 µM | > 100 µM | > 100 µM | > 100 µM | > 100 µM | > 100 µM | > 100 µM | – | – | – | – | – | – | – | – |
| COc1ccc2[nH]c(C(=O)N3CC(CCl)c4c3cc(N)c3ccccc43)cc2c1 (configuration not stated) | < 0.0172 µM | < 0.01 µM | – | < 0.01 µM | 0.315 µM | 18.2 µM | 11.4 µM | < 0.0172 µM | 0.132 µM | – | – | – | – | – | – | – | – | – |
| O=C(c1ccc(O)c([N+](=O)[O-])c1)c1ccc(O)c([N+](=O)[O-])c1 | > 100 µM | – | > 100 µM | > 100 µM | > 100 µM | > 100 µM | > 100 µM | > 100 µM | > 100 µM | > 100 µM | – | – | – | – | – | – | – | – |
| CC(=O)N(C(C)=O)n1c(Cc2ccc(C)cc2)nn(C(C)=O)c1=O | > 100 µM | > 100 µM | – | > 100 µM | > 100 µM | > 100 µM | > 100 µM | > 100 µM | > 100 µM | > 100 µM | – | – | – | – | – | – | – | – |
| Cc1c2ccccc2c(C)n2c1nc1ccccc12 | 39.5 µM | > 100 µM | 21.5 µM | > 100 µM | 48.3 µM | 43.8 µM | 44.4 µM | 25.3 µM | > 100 µM | – | – | – | – | – | – | – | – | – |
| COc1ccc(N=C2C(=Nc3ccc(OC)cc3)N(c3ccc(N(C)C)cc3)C(=S)N2c2ccc(OC)cc2)cc1 | > 100 µM | > 100 µM | – | > 100 µM | > 100 µM | > 100 µM | > 100 µM | – | > 100 µM | > 100 µM | – | – | – | – | – | – | – | – |
| O=C1/C(=C/c2ccccc2)NC(=S)N1CN1CCCCC1 | > 100 µM | – | – | > 100 µM | > 100 µM | > 100 µM | – | > 100 µM | > 100 µM | – | – | – | – | – | – | – | – | – |
| CCCN(CCC)C1CCc2c(ccc3cc[nH]c23)C1 (configuration not stated) | > 100 µM | – | > 100 µM | > 100 µM | > 100 µM | > 100 µM | > 100 µM | > 100 µM | > 100 µM | > 100 µM | – | – | – | – | – | – | – | – |
| Cc1ccc(S(=O)(=O)N/N=C2/CCC(C(C)(C)C)CC2Br)cc1 (configuration not stated) | 36.5 µM | > 100 µM | – | > 100 µM | 43.6 µM | > 100 µM | > 100 µM | > 100 µM | 53.1 µM | 35.3 µM | – | – | – | – | – | – | – | – |
| C[n+]1c2ccccc2c(/C=N\NS(=O)(=O)c2ccc(Cl)cc2)c2ccccc21 | – | 88.4 µM | > 100 µM | – | > 100 µM | > 100 µM | > 100 µM | > 100 µM | > 100 µM | > 100 µM | – | – | – | – | – | – | – | – |
| Clc1ccc(C2CC(c3cccc(Nc4ccncc4)c3)=NN2c2cc(Cl)cc(Cl)c2)cc1 (configuration not stated) | – | 5.05 µM | – | 3.39 µM | 3.33 µM | 3.32 µM | 3.7 µM | 3.23 µM | 3.86 µM | 3.79 µM | 2.2 µM | 1.85 µM | 1.84 µM | 1.78 µM | 1.71 µM | 1.86 µM | 1.93 µM | 1.76 µM |
| NC(=Nc1ccccc1)c1ccccc1N | > 100 µM | > 100 µM | > 100 µM | > 100 µM | > 100 µM | > 100 µM | > 100 µM | > 100 µM | > 100 µM | – | – | – | – | – | – | – | – | – |
| CC(=O)NC1(C(=O)N[C@@H](Cc2ccccc2)C(=O)NC2CCCCC2)Cc2ccc3ccccc3c2-c2c(ccc3ccccc23)C1 | > 100 µM | 26.2 µM and 27.4 µM | – | – | > 100 µM and 98 µM | > 100 µM | – | > 100 µM | > 100 µM | > 100 µM | – | – | – | 26.5 µM and 11.5 µM | 16.2 µM and 39.8 µM | 4.56 µM and 10.4 µM | – | 2.55 µM and 0.662 µM |
| COC([C@@H](OC(=O)c1ccccc1)[C@H](OC(=O)c1ccccc1)C(O)COC(=O)c1ccccc1)n1cc(C)c(=O)[nH]c1=O (some centres not stated) | > 100 µM | – | 43.1 µM | > 100 µM | 62.6 µM | > 100 µM | > 100 µM | 78.7 µM | > 100 µM | > 100 µM | – | – | – | – | – | – | – | – |
| N[C@H](CCC(=O)NCP(=O)(O)O)C(=O)O | > 100 µM | > 100 µM | – | – | > 100 µM | > 100 µM | 25.6 µM | > 100 µM | > 100 µM | > 100 µM | – | – | – | – | – | – | – | – |
| Cc1cc(O)cc(O)c1C(=O)O[C@]1(C)C(=O)C=C2C=C(/C=C/C(=O)O)OC=C2C1=O | > 100 µM | 75.1 µM | > 100 µM | > 100 µM | > 100 µM | > 100 µM | > 100 µM | > 100 µM | > 100 µM | – | – | – | – | – | – | – | – | – |
| CCCCCCCCCCCCCCCCCC(=O)Nc1ccn(C2CCC(COP(=O)(O)O)O2)c(=O)n1 (configuration not stated) | > 100 µM | – | > 100 µM | > 100 µM | > 100 µM | > 100 µM | > 100 µM | > 100 µM | > 100 µM | > 100 µM | – | – | – | – | – | – | – | – |
| Nc1ccc2ccc(-c3ccc[nH]3)nc2n1 | > 100 µM | – | > 100 µM | – | > 100 µM | > 100 µM | > 100 µM | > 100 µM | > 100 µM | > 100 µM | – | – | – | – | – | – | – | – |
| COP(=O)(O)C(N)Cc1c[nH]c2ccccc12 (configuration not stated) | > 100 µM | – | – | > 100 µM | > 100 µM | > 100 µM | > 100 µM | > 100 µM | > 100 µM | > 100 µM | – | – | – | – | – | – | – | – |
| Cc1cc(N2CCCC2)c([N+](=O)[O-])cc1[N+](=O)[O-] | > 100 µM | > 100 µM | > 100 µM | > 100 µM | – | > 100 µM | – | > 100 µM | > 100 µM | > 100 µM | – | – | – | – | – | – | – | – |
| O=[N+]([O-])c1ccc(N2N=C(c3ccc4ccccc4c3O)CC2c2ccc(Cl)cc2)c([N+](=O)[O-])c1 (configuration not stated) | > 100 µM | – | > 100 µM | > 100 µM | > 100 µM | > 100 µM | > 100 µM | > 100 µM | > 100 µM | 62.4 µM | – | – | – | – | – | – | – | – |

Reference: PubChem BioAssay (NCI)
